Results reported in patent publication US20140221301A1, “COMBINATION TREATMENT FOR CANCER” (priority 2011, published 2014).

Key:
[1] = test system: primary normal hematopoietic cells (PBSC); experiment: Cell viability by Annexin V staining, primary normal hematopoietic cells; assay type: cell-based, human; conditions: n=5, 48 hours
Description: FIG. 2. Tigecycline induces cell death and inhibits clonogenic growth in primary AML cells preferential over normal hematopoietic cells. Mononuclear cells from peripheral blood of leukemia patients (blast count>80%) and normal G-CSF expanded donors was treated with increasing concentrations of tigecycline for 48 hours. Cell viability was measured by Annexin-PI flow cytometry staining. Cell viability is expressed as a mean percentage plus or minus SD (n=3) relative to DMSO-treated cells. Mononuclear cells from primary AML patient samples (A, B) and normal peripheral blood cells (C) were plated in methylcelluose with 5 μM of Tigecycline. (D) Colony forming units were counted at 7 days (AML) and 14 days (Normal) post plating. […]
(§1) Cell growth and viability was assessed by the MTS assay (Promega, Madison, Wis.) according to the manufacturer's instructions. Apoptosis and cell death was measured by Annexin V-fluroscein isothiocyanate (FITC; Biovision Research Products, Mountain View, Calif.), propidium iodide staining and flow cytometry according to the manufacturer's instructions and as previously described^30.
Given the cytotoxicity of tigecycline towards leukemia cell lines, the ability of tigecycline to induce cell death in primary acute myeloid leukemia (AML) patient samples and normal hematopoietic cells was compared and evaluated. […]

Cox-1, Cox-2, Cox-4 mRNA = experiment: Quantitative RT-PCR of Cox mRNA; assay type: cell-based, human; conditions: TEX and primary AML cells, 2.5 μM and 5 μM
Description: (§2) FIG. 4. […] (A) Cells from TEX, OCI-AML2 and two primary AML patients were treated with increasing concentrations (2.5 μM and 5 μM) of tigecycline for 36 and 48 hours of tigecycline. Total proteins were extracted and analyzed by western blotting for Cox-1, Cox-2, Cox-4, grp78, XIAP, actin and tubulin. (B) TEX and AML patient cells were treated with increasing concentrations (2.5 μM and 5 μM) of tigecycline. Cox-1, Cox-2, and Cox-4 mRNA expression relative 18S was determined by quantitative RT-PCR. Data is shown as mean±SD. (C) TEX cells were treated with increasing concentrations of tigecycline and chloramphenicol (CAP) for 72 hours. Complex I, II and IV enzyme activity relative to citrate synthase activity was determined as described in materials and methods. (D) Cells from TEX, primary AML patients, and normal donors were treated with increasing concentrations of tigecycline. Mitochondrial membrane potential (ΔΨ) was determined by staining cells with JC-1 dye, and flow cytometry analysis (Red/Green ratio). Reactive oxygen species generation (ROS) was determined by staining with h2-DCFDA and Dihydroethidium (DHE).

TEX cells = experiment: ROS generation (DCF-DA, DHE) in TEX cells; assay type: cell-based, human; conditions: time-points up to 24 hours
Description: as §2
A byproduct of the mitochondrial enzyme activities of the electron transport chain is the generation of reactive oxygen species (ROS). […] Therefore, the role of tigecycline on ROS generation in leukemia cells by analyzing hydrogen peroxide ions (H2O2) using a dichlorofluorescein dye (DCF-DA), and superoxide anions using dihydroethidium (DHE) was examined.

leukemia cell lines = experiment: Cell growth and viability, MTS assay, leukemia cell lines; assay type: cell-based; conditions: 72 hours, tested leukemia cell lines
Description: FIG. 1. […] (A) TEX and (B) M9-ENL1 cells were plated in 96-well plates and drugs were added to the wells (5 μL per well) for final concentrations of 10 μM (shown) and 1 μM. Cell growth and viability was measured at 48 hours (M9-ENL-1) and 72 hours (TEX) by MTS assay. Cell viability is shown for each compound as a percent of cells treated with DMSO alone. (C) Leukemia, (D) myeloma, and (E) solid tumor cell lines were seeded in 96-well plates and then treated with increasing concentrations of tigecycline. Cell growth and viability was measured at 72 hours by MTS assay. Cell viability is expressed as mean percentage plus or minus SD (n=3) relative to vehicle-treated cells. […] Cell viability was measured at 72 hours by MTS assay. Cell viability is expressed as mean percentage plus or minus SD (n=3) relative to vehicle-treated cells.
Human leukemia (OCI-AML2, HL60, U937) cell lines were maintained in RPMI 1640 medium. Myeloma (LP-1, KMS11, 8226, JJN3, OP-M2) cell lines were maintained in Iscove's media. […]
as §1

[2] = rat, in vivo, 30 mg/kg/day; cited from earlier work

In the case of `CN(C)c1cc(NC(=O)CNC(C)(C)C)c(O)c2c1C[C@H]1C[C@H]3[C@H](N(C)C)C(O)=C(C(N)=O)C(=O)[C@@]3(O)C(O)=C1C2=O` [tigecycline], the LD50 [1] is reported as greater than 10 µM, the “mRNA expression of Cox-1, Cox-2 over Cox-4” value (Cox-1, Cox-2, Cox-4 mRNA) is reported as “preferential increased mRNA expression” and the ROS generation (TEX cells) is reported as “no observed increase”. For the same molecule, the IC50 (leukemia cell lines) was 5 to 8 µM and the toxicology findings [2] was “reversible anemia, thrombocytopenia, and leucopenia with a hypocellular bone marrow”.
